Values of other authors as cited in patent US5919783A, “Indoline and azaindoline derivatives as 5-HT1D alpha receptor agonists” (Merck Sharp & Dohme Ltd., priority 1994, dated 1999).

Experiments:
[1] = tested on: human 5-HT1Dα and 5-HT1Dβ receptor subtypes; settings: cf. WO-A-91/17174, Table 1
[2] = therapeutic doses

## CNS(=O)(=O)Cc1ccc2[nH]cc(CCN(C)C)c2c1 [sumatriptan]
[1]
  discrimination between human 5-HT1Dα and 5-HT1Dβ receptor subtypes (in words): barely discriminates
[2]
  adverse events in humans: adverse cardiovascular events
